Measurements from patent US9393226B2, “Use of osthole for treating focal segmental glomerulosclerosis” (National Defense Medical Center, priority 2014, dated 2016).

Columns and labels:
Format in all cases: in vivo, BALB/c mice
[1] = system: adriamycin induced FSGS mice; experiment: Analysis of urine protein and renal function in mouse FSGS model; conditions: osthole 30 mg/kg daily intraperitoneal, vs pathological control group
Procedure: (§1) Experiments were performed on 8-week-old female BALB/c mice. The mice were separated into 3 groups at 8-weeks old. One of the groups were injected intravenously with normal saline to be used as normal controls, where the pathological control group and the osthole treated group were intravenously injected with a single dose of adriamycin (0.1 mg/10 g body weight) to induce FSGS, wherein the osthole treated group is intraperitoneally injected with osthole at a daily dose of 30 mg/kg body weight starting from 6 hours before FSGS induction by adriamycin. After intravenous injection of adriamycin, osthole was continuously given to the osthole treated group through intraperitoneal injection with a daily dose of 30 mg/kg body weight until they were sacrificed 28 days after FSGS induction. The pathological control group were given vehicle by intraperitoneal injection in the same fashion. Urine samples were collected in metabolic cages on days 3, 7, 14, and 21. Mice were sacrificed at day 7 or 28 post disease induction. Renal cortical tissues, spleen and serum were collected and stored properly for further analysis. Mice urine samples were collected by metabolic cages. Proteinuria was first tested with test paper, following the measurement of protein concentration with BCA Protein Assay Kit (PIERCE), where the urinary protein index was illustrated by 24-hour proteinuria (urinary protein concentration/urinary creatinine concentration). In addition, blood was collected through the eye socket, after separation, serum specimen was obtained, which was absorbed into Fuji Ori-Chem Slide and measured by machine (Fuji Photo Film Co., Tokyo, Japan) to read the data.

[2] = system: adriamycin induced FSGS mice; experiment: Pathologic evaluation of kidney sections (H&E) in mouse FSGS model; conditions: osthole 30 mg/kg daily intraperitoneal; 7th and 28th day; FIG. 2
Procedure: as §1, with “[…] Renal pathology was examined under optical microscope and renal lesions was scored. or EPHLs and sclerosis, at least 50 glomeruli in sections” for “Mice urine samples”, “examined for each mouse.” for “collected by metabolic cages. Proteinuria was first tested with test paper, following the measurement of protein concentration with BCA Protein Assay Kit (PIERCE), where the urinary protein index was illustrated by 24-hour proteinuria (urinary protein concentration/urinary creatinine concentration). In addition, blood was collected through the eye socket, after separation, serum specimen was obtained, which was absorbed into Fuji Ori-Chem Slide and measured by machine (Fuji Photo Film Co., Tokyo, Japan) to read the data.”

[3] = system: adriamycin induced FSGS mice; experiment: Evaluation of renal fibrosis (collagen IV IHC, Sirius red staining) in mouse FSGS model; conditions: osthole 30 mg/kg daily intraperitoneal
Procedure: as §1, with “analysis.” for “analysis. Mice urine samples were collected by metabolic cages. Proteinuria was first tested with test paper, following the measurement of protein concentration with BCA Protein Assay Kit (PIERCE), where the urinary protein index was illustrated by 24-hour proteinuria (urinary protein concentration/urinary creatinine concentration).”, “immunohistochemistry” for “blood”, “also performed. […] A quantitative image analysis software Pax-it; […], Villa Park, Ill., USA) was used to analyze” for “collected through”, “staining results.” for “eye socket, after separation, serum specimen was obtained, which was absorbed into Fuji Ori-Chem Slide and measured by machine (Fuji Photo Film Co., Tokyo, Japan) to read the data.”

[4] = system: ROS (superoxide anion); experiment: Reactive oxygen species (ROS) determination in mouse FSGS model; conditions: osthole 30 mg/kg daily intraperitoneal, 28th day
Procedure: Experiments were performed on 8-week-old female BALB/c mice. The mice were separated into 3 groups at 8-weeks old. One of the groups were injected intravenously with normal saline to be used as normal controls, where the pathological control group and the osthole treated group were intravenously injected with a single dose of adriamycin (0.1 mg/10 g body weight) to induce FSGS, wherein the osthole treated group is intraperitoneally injected with osthole at a daily dose of 30 mg/kg body weight starting from 6 hours before FSGS induction by adriamycin. After intravenous injection of adriamycin, osthole was continuously given to the osthole treated group through intraperitoneal injection with a daily dose of 30 mg/kg body weight until they were sacrificed 28 days after FSGS induction. The pathological control group were given vehicle by intraperitoneal injection in the same fashion. Urine samples were collected in metabolic cages on days 3, 7, 14, and 21. […] Lucigenin was used to react with the ROS in urine, and detected with Hidex microplate luminometer (Finland), the results were represented as reactive luminescence units (RLU) per 15 min per milligram dry weight (i.e., RLU/15 min/mg dry weight). ROS in kidney tissues were detected with dihydroethidium (DHE), and quantitation was done by determining the ratio of signal positive nucleus/total nucleus in each kidney trans-section.

[5] = system: Nrf2 pathway; experiment: Anti-oxidative signaling pathway in kidney tissues (Nrf2 Western blot, HO-1 ELISA, GPx activity) in mouse FSGS model; conditions: kidney tissue, osthole 30 mg/kg daily intraperitoneal, FIG. 6
Procedure: as §1, with “analysis.” for “analysis. Mice urine samples were collected by metabolic cages. Proteinuria was first tested with test paper, following the measurement of protein concentration with BCA Protein Assay Kit (PIERCE), where the urinary protein index was illustrated by 24-hour proteinuria (urinary protein concentration/urinary creatinine concentration). In addition, blood was collected through the eye socket, after separation, serum specimen was obtained, which was absorbed into Fuji Ori-Chem Slide and measured by machine (Fuji Photo Film Co., Tokyo, Japan) to read the data.”
(§2) Cytoplasmic and nuclear proteins were extracted from renal tissues using a Nuclear Extract Kit (Active Motif, Tokyo, Japan) according to the manufacturer's instructions. Protein extract was separated by electrophoresis and blotted. Target proteins were detected by Western blot analysis using primary antibodies against mouse Nrf2 (Santa Cruz), COX-2 (Santa Cruz), caspase-3 (Cell Signaling Technology, MA, USA), or caspase-9 (Cell Signaling Technology, MA, USA). […] Lastly, secondary antibodies were added and their signals were detected by chemiluminescence.
(§3) Serum PEG2 and renal HO-1 levels in mice were determined by enzyme linked immunosorbent assay according to the manufacturer's (R&D, U.S.A., Active Motif) instructions.
GPx activity in renal tissues was measured using a commercial glutathione peroxidase assay kit (Cayman, Mich., USA) according to the manufacturer's instructions. […]

[6] = system: adriamycin induced FSGS mice; experiment: F4/80 immunostaining of monocyte/macrophage infiltration in kidney tissues in mouse FSGS model; conditions: osthole 30 mg/kg daily intraperitoneal; 28th day; FIG. 7
Procedure: as §1, with “analysis.” for “analysis. Mice urine samples were collected by metabolic cages. Proteinuria was first tested with test paper, following the measurement of protein concentration with BCA Protein Assay Kit (PIERCE), where the urinary protein index was illustrated by 24-hour proteinuria (urinary protein concentration/urinary creatinine concentration).”, “immunohistochemistry” for “blood”, “also performed. […] A quantitative image analysis software Pax-it; […], Villa Park, Ill., USA) was used to analyze” for “collected through”, “staining results.” for “eye socket, after separation, serum specimen was obtained, which was absorbed into Fuji Ori-Chem Slide and measured by machine (Fuji Photo Film Co., Tokyo, Japan) to read the data.”

[7] = system: NF-κB p65; experiment: NF-κB p65 immunostaining in kidney tissues in mouse FSGS model; conditions: osthole 30 mg/kg daily intraperitoneal; 28th day; FIG. 8
Procedure: as §1, with “analysis.” for “analysis. Mice urine samples were collected by metabolic cages. Proteinuria was first tested with test paper, following the measurement of protein concentration with BCA Protein Assay Kit (PIERCE), where the urinary protein index was illustrated by 24-hour proteinuria (urinary protein concentration/urinary creatinine concentration).”, “immunohistochemistry” for “blood”, “also performed. […] A quantitative image analysis software Pax-it; […], Villa Park, Ill., USA) was used to analyze” for “collected through”, “staining results.” for “eye socket, after separation, serum specimen was obtained, which was absorbed into Fuji Ori-Chem Slide and measured by machine (Fuji Photo Film Co., Tokyo, Japan) to read the data.”

[8] = system: COX-2 and PGE2; experiment: Renal COX-2 (Western blot) and serum PGE2 (ELISA) in mouse FSGS model; conditions: osthole 30 mg/kg daily intraperitoneal, 28th day
Procedure: Experiments were performed on 8-week-old female BALB/c mice. The mice were separated into 3 groups at 8-weeks old. One of the groups were injected intravenously with normal saline to be used as normal controls, where the pathological control group and the osthole treated group were intravenously injected with a single dose of adriamycin (0.1 mg/10 g body weight) to induce FSGS, wherein the osthole treated group is intraperitoneally injected with osthole at a daily dose of 30 mg/kg body weight starting from 6 hours before FSGS induction by adriamycin. […]
as §2, with “Protein extract was separated by electrophoresis and blotted.” left out
as §3

[9] = system: adriamycin induced FSGS mice; experiment: TUNEL measurement of apoptosis in kidney tissues in mouse FSGS model; conditions: osthole 30 mg/kg daily intraperitoneal; 28th day; FIG. 10
Procedure: Experiments were performed on 8-week-old female BALB/c mice. The mice were separated into 3 groups at 8-weeks old. One of the groups were injected intravenously with normal saline to be used as normal controls, where the pathological control group and the osthole treated group were intravenously injected with a single dose of adriamycin (0.1 mg/10 g body weight) to induce FSGS, wherein the osthole treated group is intraperitoneally injected with osthole at a daily dose of 30 mg/kg body weight starting from 6 hours before FSGS induction by adriamycin. After intravenous injection of adriamycin, osthole was continuously given to the osthole treated group through intraperitoneal injection with a daily dose of 30 mg/kg body weight until they were sacrificed 28 days after FSGS induction. The pathological control group were given vehicle by intraperitoneal injection in the same fashion. Urine samples were collected in metabolic cages on days 3, 7, 14, and 21. Mice were sacrificed at day 7 or 28 post disease induction. Renal cortical tissues, spleen and serum were collected and stored properly for further analysis. TUNEL (Terminal deoxynucleotidyl transferase dUTP nick end labeling) was used for the detection of apoptosis. Kidney sections were prepared by fixing with formalin and embedded in paraffin. […]

[10] = system: caspase-3, caspase-8 and caspase-9; experiment: Western blot analysis of caspase-3, caspase-8 and caspase-9 in kidney tissues in mouse FSGS model; conditions: kidney tissue
Procedure: Experiments were performed on 8-week-old female BALB/c mice. The mice were separated into 3 groups at 8-weeks old. One of the groups were injected intravenously with normal saline to be used as normal controls, where the pathological control group and the osthole treated group were intravenously injected with a single dose of adriamycin (0.1 mg/10 g body weight) to induce FSGS, wherein the osthole treated group is intraperitoneally injected with osthole at a daily dose of 30 mg/kg body weight starting from 6 hours before FSGS induction by adriamycin. After intravenous injection of adriamycin, osthole was continuously given to the osthole treated group through intraperitoneal injection with a daily dose of 30 mg/kg body weight until they were sacrificed 28 days after FSGS induction. The pathological control group were given vehicle by intraperitoneal injection in the same fashion. Urine samples were collected in metabolic cages on days 3, 7, 14, and 21. Mice were sacrificed at day 7 or 28 post disease induction. Renal cortical tissues, spleen and serum were collected and stored properly for further analysis. Cytoplasmic and nuclear proteins were extracted from renal tissues using a Nuclear Extract Kit (Active Motif, Tokyo, Japan) according to the manufacturer's instructions. Protein extract was separated by electrophoresis and blotted. Target proteins were detected by Western blot analysis using primary antibodies against mouse Nrf2 (Santa Cruz), COX-2 (Santa Cruz), caspase-3 (Cell Signaling Technology, MA, USA), or caspase-9 (Cell Signaling Technology, MA, USA). Antibodies against histone H3 (Cell Signaling, CO, USA) or β-actin (Santa Cruz) were used as internal controls for the nuclear and cytosolic target proteins, respectively. Lastly, secondary antibodies were added and their signals were detected by chemiluminescence.

[11] = osthole 30 mg/kg daily intraperitoneal, vs pathological control group, FIG. 11

For `COc1ccc2ccc(=O)oc2c1CC=C(C)C` [osthole], the “urine protein concentration (urine protein/urine creatinine ratio)” value ([1]; 7th to 28th day, FIG. 1A) was “almost be completely suppressed”, the “blood urea nitrogen (BUN)” value ([1]; 28th day, FIG. 1B) was “lower BUN and Cr concentration, similar to that of the normal control group” and the “serum creatinine (Cr)” value ([1]; 28th day, FIG. 1C) was “lower BUN and Cr concentration, similar to that of the normal control group”. The “disease progression of glomerular sclerosis (histopathology)” value [2] was “significantly suppress the disease progression of glomerular sclerosis”, the “fibrosis of the renal tissue (Sirius red staining)” value ([3]; 28th day, FIG. 4) was “suppress fibrosis of the renal tissue, similar to the normal control group” and the “collagen IV expression in glomerular tissue (IHC)” value ([3]; FIG. 3) was “significantly suppress collagen IV expression in glomerular tissue”. The “superoxide anion (ROS) in serum” value ([4]; FIG. 5A) was “suppressed exhibition of such phenomenon”, the “superoxide anion (ROS) in kidney tissue” value ([4]; FIG. 5B) was “suppressed exhibition of such phenomenon” and the GPx activity [5] was “significantly increase HO-1 expression and GPx activity”. The HO-1 expression [5] was “significantly increase HO-1 expression and GPx activity”, the “Nrf2 translocation into the nucleus” value ([5]; vs pathological control group) was “significantly increase the Nrf2 translocation” and the “monocyte/macrophage infiltration (F4/80) in kidney tissues” value [6] was “significantly reduced infiltration”. For the same molecule, the “NF-κB p65 nuclear translocation in kidney tissues” value [7] was “can be suppressed by osthole”, the “COX-2 expression level (renal)” value ([8]; FIG. 9A-B) was “restored to levels similar to the normal control group” and the “PGE2 expression level (serum)” value ([8]; FIG. 9C) was “restored to levels similar to the normal control group”. The “apoptosis in kidney tissues (TUNEL staining)” value [9] was “can be suppressed by administration of osthole”, the “expression level of caspase-8” value ([10]; data not shown) was “did not show significant difference” and the “caspase-3 in activated state (p17 fragment)” value [10, 11] was “suppressed significantly”. The “caspase-9 in activated state (p37 fragment)” value [10, 11] was “suppressed significantly”.
